# Read-outs that look alike come from different tables or passages of the source.
# Target: human TYK2 (JH2domain-pseudokinase) (Homo sapiens (Human), UniProt P29597)
# Assay: TYK2 JH2 Domain Binding Assay (KINOMEscan)
# Conditions: read-out: JH2 Kd
# [1] = Table 5, Tyk2 JH2 Domain Binding Assay
# Chain of human TYK2 (JH2domain-pseudokinase) (P29597 556-888): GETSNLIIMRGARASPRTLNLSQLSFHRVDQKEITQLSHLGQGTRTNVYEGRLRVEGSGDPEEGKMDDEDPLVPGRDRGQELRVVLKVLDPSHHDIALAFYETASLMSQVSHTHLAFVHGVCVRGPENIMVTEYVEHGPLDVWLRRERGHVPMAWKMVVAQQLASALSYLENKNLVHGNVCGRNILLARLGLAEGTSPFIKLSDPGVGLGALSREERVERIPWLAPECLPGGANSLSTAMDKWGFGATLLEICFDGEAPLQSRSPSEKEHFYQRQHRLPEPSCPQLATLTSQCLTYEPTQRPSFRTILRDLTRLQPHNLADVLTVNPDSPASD
Compound,"Kd (Table 4, JH2 binding assay) [nM]",Kd [1] [nM]
"Cn1[nH]c2nc(NC(=O)C3CC3)cc(Nc3ccc(C4CCC4)cc3S(C)(=O)=O)c2c1=O [Compound I-182, N-(4-((4-cyclobutyl-2-(methylsulfonyl)phenyl)amino)-2-methyl-3-oxo-2,3-dihydro-1H-pyrazolo[3,4-b]pyridin-6-yl)cyclopropanecarboxamide]",0.1 to 0.5,–
"COc1c(Nc2cc(Nc3cc(C)nc(C)n3)ncc2-c2nnc(CO)o2)cccc1-c1ncn(C)n1 [VIII-14, (5-(6-((2,6-dimethylpyrimidin-4-yl)amino)-4-((2-methoxy-3-(1-methyl-1H-1,2,4-triazol-3-yl)phenyl)amino)pyridin-3-yl)-1,3,4-oxadiazol-2-yl)methanol]",–,0.1 to 1
[2H]C([2H])([2H])n1[nH]c2nc(NC(=O)C3CC3)cc(Nc3cccc(-c4nnn(C)n4)c3OC)c2c1=O [Compound I-100],< 0.1,–
"COc1c(Nc2cc(N)nc3[nH]n(C)c(=O)c23)cccc1C(=O)O [Compound I-241, 3-((6-amino-2-methyl-3-oxo-2,3-dihydro-1H-pyrazolo[3,4-b]pyridin-4-yl)amino)-2-methoxybenzoic acid]",> 10,–
COc1c(Nc2cc(NC(=O)C3CC3)nc3[nH]n(C)c(=O)c23)cccc1-n1nc(C)c(C)n1 [Compound I-149],> 10,–
COc1c(Nc2cc(NC(=O)C3CC3)nc3[nH]n(C)c(=O)c23)cccc1-c1ccn(C)n1 [Compound I-57],< 0.1,–
"COCc1ccnc(Nc2cc(Nc3cccc(Cl)c3OC)c3c(=O)n(C)[nH]c3n2)c1 [Compound I-97, 4-((3-chloro-2-methoxyphenyl)amino)-6-((4-(methoxymethyl)pyridin-2-yl)amino)-2-methyl-1,2-dihydro-3H-pyrazolo[3,4-b]pyridin-3-one]",0.5 to 1,–
"COC1CN(c2cccc(Nc3cc(Nc4ccccc4S(C)(=O)=O)c4c(=O)n(C)[nH]c4n3)n2)C1 [Compound I-140, 6-((6-(3-methoxyazetidin-1-yl)pyridin-2-yl)amino)-2-methyl-4-((2-(methylsulfonyl)phenyl)amino)-1,2-dihydro-3H-pyrazolo[3,4-b]pyridin-3-one]",1 to 10,–
COc1c(Nc2cc(Nc3cc(C)c(F)cn3)nc3[nH]n(C)c(=O)c23)cccc1C(N)=O [Compound I-106],1 to 10,–
"Cn1[nH]c2nc(Nc3ccc(C#N)cn3)cc(Nc3ccc(C4CC4)cc3S(C)(=O)=O)c2c1=O [Compound I-213, 6-((4-((4-cyclopropyl-2-(methylsulfonyl)phenyl)amino)-2-methyl-3-oxo-2,3-dihydro-1H-pyrazolo[3,4-b]pyridin-6-yl)amino)nicotinonitrile]",0.1 to 0.5,–
"COc1cc(C2CC2)ccc1Nc1cc(NC(=O)C2CC2)nc2[nH]n(C)c(=O)c12 [Compound I-50, N-(4-((4-cyclopropyl-2-methoxyphenyl)amino)-2-methyl-3-oxo-2,3-dihydro-1H-pyrazolo[3,4-b]pyridin-6-yl)cyclopropanecarboxamide]",1 to 10,–
"COc1c(Nc2cc(Nc3ccc(C)nn3)ncc2-c2ncc(Cl)s2)cccc1-c1nnn(C)n1 [VIII-16, 5-(5-chlorothiazol-2-yl)-N4-(2-methoxy-3-(2-methyl-2H-tetrazol-5-yl)phenyl)-N2-(6-methylpyridazin-3-yl)pyridine-2,4-diamine]",–,0.1 to 1
COc1c(Nc2cc(NC(=O)C3CC3)nc3[nH]n(C)c(=O)c23)cccc1-c1nc(C)n(C)n1 [Compound I-53],0.1 to 0.5,–

# The remaining lines, values ahead:
"Kd (Table 4, JH2 binding assay) [nM]",Kd [1] [nM],Compound
1 to 10,–,"COc1c(Cl)cccc1Nc1cc(Nc2cc(CO)ccn2)nc2[nH]n(C)c(=O)c12 [Compound I-101, 4-((3-chloro-2-methoxyphenyl)amino)-6-((4-(hydroxymethyl)pyridin-2-yl)amino)-2-methyl-1,2-dihydro-3H-pyrazolo[3,4-b]pyridin-3-one]"
1 to 10,–,"COc1c(F)cccc1Nc1cc(Nc2cc(C)ccn2)nc2[nH]n(C)c(=O)c12 [Compound I-83, 4-((3-fluoro-2-methoxyphenyl)amino)-2-methyl-6-((4-methylpyridin-2-yl)amino)-1,2-dihydro-3H-pyrazolo[3,4-b]pyridin-3-one]"
0.1 to 0.5,–,"COc1c(F)cccc1Nc1cc(Nc2cc(C)nc(C)n2)nc2[nH]n(C)c(=O)c12 [Compound I-74, 6-((2,6-dimethylpyrimidin-4-yl)amino)-4-((3-fluoro-2-methoxyphenyl)amino)-2-methyl-1,2-dihydro-3H-pyrazolo[3,4-b]pyridin-3-one]"
1 to 10,–,"COc1c(F)cccc1Nc1cc(Nc2ccc(C3CC3)cn2)nc2[nH]n(C)c(=O)c12 [Compound I-91, 6-((5-cyclopropylpyridin-2-yl)amino)-4-((3-fluoro-2-methoxyphenyl)amino)-2-methyl-1,2-dihydro-3H-pyrazolo[3,4-b]pyridin-3-one]"
0.1 to 0.5,–,"COc1c(Nc2cc(Nc3ccccn3)nc3[nH]n(C)c(=O)c23)cccc1-c1nnn(C)n1 [Compound I-4, 4-((2-methoxy-3-(2-methyl-2H-tetrazol-5-yl)phenyl)amino)-2-methyl-6-(pyridin-2-ylamino)-1,2-dihydro-3H-pyrazolo[3,4-b]pyridin-3-one]"
< 0.1,–,"COc1c(Nc2cc(Nc3ccccn3)nc3[nH]n(C)c(=O)c23)cccc1-c1ncn(C)n1 [Compound I-17, 4-((2-methoxy-3-(1-methyl-1H-1,2,4-triazol-3-yl)phenyl)amino)-2-methyl-6-(pyridin-2-ylamino)-1,2-dihydro-3H-pyrazolo[3,4-b]pyridin-3-one]"
> 10,–,"COc1c(Nc2cc(Nc3ccc(N4CCCC4)cn3)nc3[nH]n(C)c(=O)c23)cccc1-c1nnn(C)n1 [Compound I-58, 4-((2-methoxy-3-(2-methyl-2H-tetrazol-5-yl)phenyl)amino)-2-methyl-6-((5-(pyrrolidin-1-yl)pyridin-2-yl)amino)-1,2-dihydro-3H-pyrazolo[3,4-b]pyridin-3-one]"
1 to 10,–,"COc1c(Nc2cc(Nc3ccc(N4CCOCC4)cn3)nc3[nH]n(C)c(=O)c23)cccc1-c1nnn(C)n1 [Compound I-7, 4-((2-methoxy-3-(2-methyl-2H-tetrazol-5-yl)phenyl)amino)-2-methyl-6-((5-morpholinopyridin-2-yl)amino)-1,2-dihydro-3H-pyrazolo[3,4-b]pyridin-3-one]"
> 10,–,COc1c(C#N)cccc1Nc1cc(Nc2ccc(C#N)cn2)nc2[nH]n(C)c(=O)c12 [Compound I-41]
1 to 10,–,"COc1c(Nc2cc(Nc3cccc(C#N)n3)nc3[nH]n(C)c(=O)c23)cccc1-c1nnn(C)n1 [Compound I-28, 6-((4-((2-methoxy-3-(2-methyl-2H-tetrazol-5-yl)phenyl)amino)-2-methyl-3-oxo-2,3-dihydro-1H-pyrazolo[3,4-b]pyridin-6-yl)amino)picolinonitrile]"
> 10,–,"COc1c(Nc2cc(Nc3ccc(N4CCCCC4)cn3)nc3[nH]n(C)c(=O)c23)cccc1-c1nnn(C)n1 [Compound I-11, 4-((2-methoxy-3-(2-methyl-2H-tetrazol-5-yl)phenyl)amino)-2-methyl-6-((5-(piperidin-1-yl)pyridin-2-yl)amino)-1,2-dihydro-3H-pyrazolo[3,4-b]pyridin-3-one]"
> 10,–,COc1c(C#N)cccc1Nc1cc(Nc2cc(C)c(F)cn2)nc2[nH]n(C)c(=O)c12 [Compound I-37]
1 to 10,–,"COc1c(F)cccc1Nc1cc(Nc2cccc(C3CC3)n2)nc2[nH]n(C)c(=O)c12 [Compound I-87, 6-((6-cyclopropylpyridin-2-yl)amino)-4-((3-fluoro-2-methoxyphenyl)amino)-2-methyl-1,2-dihydro-3H-pyrazolo[3,4-b]pyridin-3-one]"

# — patent publication US10323036B2 (Nimbus Lakshmi, Inc., priority 2016, dated 2019)
